The nature of data set [1]: solubility (qualitative). It is filed as physicochemical.
In data set [2] the test system is virus of the influenza of the type A/Victoria35/72. It is filed as cell-based. To be noted: CAC model; dose 25.0 mcg/ml as calculated per equimolecular content of DMAAM.
Data set [3] relates to influenza virus of B type. In words: summary statement on activity against influenza virus of B type. To be noted: conclusion from the tables; protection index less than 20 is considered inactive. The source says: At the same time synthesized (claimed) polymeric compounds of 3.5-dimethyl-1-adamantylamine have an effective level of antiviral activity against the influenza virus of B type, both in the infection model of chick-embryo and mice.

Data set [4] has as its system virus of the influenza B/Li/40. In words: antiviral activity in infected mice, medical and preventive treatment scheme, oral. The following applies: single dose 50 mg/ml as calculated per equimolecular content of DMAAM, administration frequency 5. It is filed as in vivo. As for the experimental part: (§1) The tests of antiviral activity of produced polymeric salts were conducted against the viruses of types A and B influenza using the tissue culture of chorionallantoic coat fragments from chick-embryos (model CAC) and infecting animals (mice).
(§2) In each experimental and control (placebo) group 20 mice of both sexes were infected.

The subject of data set [5] is virus of the influenza A/Li/40. The data set is described as follows: antiviral activity in tissue culture of chorionallantoic coat fragments (CAC model), A/Li/40. It is filed as cell-based, chick-embryos. To be noted: dose 25.0 mcg/ml as calculated per equimolecular content of DMAAM. As for the experimental part:
as §1

A short description of data set [6]: acute toxicity, single oral administration to mice (LD50). The following applies: both sexes, Balb, mouse, in vivo. As for the experimental part: The toxicity level of claimed compounds was assessed according to a general index of acute toxicity - average fatal dose of LD50. The study was held with a single oral administration of the agent to white mice of both sexes, line "Balb", weight 18 - 20 g, and to white rats, line "Vistar", weight 130 - 250 g (female) and 225 - 370 g (male). The medications were administered to mice in the dose range from 250 to 1100 mg/kg, and to rats in the range of 480 - 2315 mg/kg.

Data set [7] deals with influenza A/Aichi/2/68 virus. In words: duration of antiviral activity in infected mice, preventive application scheme, single oral dose. To be noted: for Protection index of medication (%) when administered in specified periods (hours) before contamination: mice, single oral dose 100mg/kg as calculated per equimolecular DMAAM content. It is filed as in vivo. On the procedure:
as §1, §2

For data set [8], the system named is influenza virus of B type. To be noted: statement with reference to USSR author's certificates; cited from earlier work.

Molecules are shown by their SMILES. Counter-ions that a name gives are not always drawn. Like-named read-outs stand apart in the source and are kept apart here.

The LD50 is the dose at which mortality reaches 50%.

Consider `CC12CC3CC(C)(C1)CC(N)(C3)C2` [3.5-dimethyl-l-adamantylamine, 3.5-dimethyl-1-adamantylamine], for which, in data set [1], the solubility in water result is recorded as “insoluble in water”.
As to `CC12CC3CC(C)(C1)CC(N)(C3)C2` [HC - DMAAM (memantine), hydrochloride 3.5-dimethyl-1-adamantylamine], the “Protection index of the medication, %” value in data set [2] is on record as 39%; in data set [5] it was 0%. Moreover, the “antiviral activity against the influenza virus of B type” value (“antiviral activity” for short) in data set [3] was “is not effective”. Further, the “Protection index of medication, %” value in data set [4] is listed as 7.1%. The “The number of animals Died, %” value in data set [4] is given as 65%. Besides, the “The number of animals Died, Animal units” value in data set [4] was 13. In data set [6], this compound showed an LD50 of 363 mg/kg. Besides, the “Protection index of medication (%) when administered in specified periods (hours) before contamination” value is 37% in data set [7] (1 hour before contamination); 28% in data set [7] (24 hours before contamination); 22% in data set [7] (48 hours before contamination); 11% in data set [7] (72 hours before contamination); 9% in data set [7] (96 hours before contamination); 7% in data set [7] (120 hours before contamination). Further, the “time of administration before infection at which the medication was effective” value in data set [7] (prevention scheme, same dose as calculated per 3.5-dimethyl-1-adamantylamine content) is 24 h.
`Cl.NC12CC3CC(CC(C3)C1)C2` [midantan, hydrochloride 1-adamatilamine]: the “antiviral activity” value in data set [8] is given as “is not effective”.
On to `CC(N)C12CC3CC(CC(C3)C1)C2.Cl` (stereo not drawn) [remantadin, hydrochloride α-methyl-α-(1-adamantyl)methylamine], for which, in data set [8], the “antiviral activity” value is recorded as “is not effective”.

The values above are taken from patent publication EP1669379B1, “3,5-DIMETHYL-1-ADAMANTYL-AMMONIUM POLYMERIC SALTS AND THE USE THEREOF IN THE FORM OF ANTIVIRAL AGENTS” (priority 2003, dated 2005).
